Laboratory results from patent publication US20150238614A1, “STABILISED AMORPHOUS FORM OF AGOMELATINE, A PROCESS FOR ITS PREPARATION AND PHARMACEUTICAL COMPOSITIONS CONTAINING IT” (LES LABORATOIRES SERVIER, priority 2012, published 2015).
≈ marks a conversion by molar mass, not a printed value.

Key:
[1] = Solubility study, Crystal16 apparatus, pH 6.8 buffer, nephelometric detection; type: physicochemical; conditions: pH 6.8 buffer solution, aqueous buffer, thermodynamic from solid, 25° C., reference under the study conditions, read-out: Solubility of agomelatine (reference)
Procedure: Various concentrations were tested and the presence of insoluble particles was monitored by nephelometric detection.

[2] = 25° C.; cited from earlier work
[3] = Glass transition temperature by scanning calorimetric analysis (DSC); type: physicochemical
Procedure: The Applicant has now discovered that agomelatine has an amorphous state whose glass transition temperature has been measured at −6° C. by scanning calorimetric analysis, or DSC (“Differential Scanning calorimetry”). Above that temperature, the active ingredient undergoes a transition towards a crystalline form. Preserving agomelatine in the amorphous state at ambient temperature is therefore not possible.

solubility at 4 h [1]: 140 µg/mL (≈ 575 µM)
Glass transition temperature of the amorphous state [3]: −6 °C
Compound: COc1ccc2cccc(CCNC(C)=O)c2c1 [agomelatine, N-[2-(7-methoxy-1-naphthyl)ethyl]acetamide]
Solubility of agomelatine in water [2]: less than 0.15 mg/ml
